Experimental data reported in ChEMBL document CHEMBL3244132, “Semisynthetic aminoglycoside antibacterials. 6. Synthesis of sisomicin, Antibiotic G-52, and novel 6'-substituted analogues of sisomicin from aminoglycoside 66-40C” (J Med Chem, 1978).
≈ marks a conversion by molar mass, not a printed value. Calls of active or inactive are those of the source. The rule behind the calls is not given here.

Tests used:
[1] = system: Staphylococcus aureus; test: Antimicrobial activity against Staphylococcus aureus 209 P by tube dilution method; format: functional
[2] = system: Streptococcus pyogenes; test: Antimicrobial activity against Streptococcus pyogenes Alvarez by tube dilution method; format: functional
[3] = system: Trichomonas vaginalis; test: Antiprotozoal activity against Trichomonas vaginalis after 48 hrs; format: functional
[4] = system: Staphylococcus aureus; test: Antimicrobial activity against Staphylococcus aureus 59N by tube dilution method; format: functional
[5] = system: Providencia rettgeri; test: Antimicrobial activity against Providencia rettgeri Anderson by tube dilution method; format: functional
[6] = system: Salmonella typhimurium; test: Antimicrobial activity against Salmonella typhimurium Gr. B. by tube dilution method; format: functional, Salmonella enterica subsp. enterica serovar Typhimurium; settings: Salmonella enterica
[7] = system: Streptococcus pyogenes; test: Antimicrobial activity against Streptococcus pyogenes Group A Cruz by tube dilution method; format: functional
[8] = system: Entamoeba histolytica; test: Antiprotozoal activity against Entamoeba histolytica JH; format: functional
[9] = system: Bacillus subtilis; test: Antimicrobial activity against Bacillus subtilis ATCC 6633 by tube dilution method; format: functional
[10] = system: Serratia marcescens; test: Antimicrobial activity against Serratia marcescens Dalton by tube dilution method; format: functional
[11] = system: Pseudomonas aeruginosa; test: Antimicrobial activity against Pseudomonas aeruginosa Stone 130 carrying AAC(3) by tube dilution method; format: functional
[12] = system: Streptococcus pyogenes; test: Antimicrobial activity against Streptococcus pyogenes C by tube dilution method; format: functional
[13] = system: Providencia rettgeri; test: Antimicrobial activity against Providencia rettgeri Membel by tube dilution method; format: functional
[14] = system: Klebsiella pneumoniae; test: Antimicrobial activity against Klebsiella pneumoniae Adler 17 carrying APH(3')-I by tube dilution method; format: functional
[15] = Acute toxicity in albino CF1 mouse; format: organism-based; settings: in vivo
[16] = system: Streptococcus pyogenes; test: Antimicrobial activity against Streptococcus pyogenes 27 by tube dilution method; format: functional
[17] = system: Escherichia coli; test: Antimicrobial activity against Escherichia coli JR88 carrying AAC(3) by tube dilution method; format: functional
[18] = system: Staphylococcus aureus; test: Antimicrobial activity against Staphylococcus aureus Ziegler by tube dilution method; format: functional
[19] = system: Escherichia coli; test: Antimicrobial activity against Escherichia coli HL97/W677 carrying AAC(6') by tube dilution method; format: functional
[20] = system: Pseudomonas aeruginosa; test: Antimicrobial activity against Pseudomonas aeruginosa St. M. 1395 by tube dilution method; format: functional
[21] = system: Escherichia coli; test: Antimicrobial activity against Escherichia coli Baker 2 carrying APH(3')-I by tube dilution method; format: functional
[22] = system: Pseudomonas aeruginosa; test: Antimicrobial activity against Pseudomonas aeruginosa GN 315 carrying AAC(6') by tube dilution method; format: functional
[23] = system: Histomonas meleagridis; test: Antiprotozoal activity against Histomonas meleagridis; format: functional
[24] = system: Providencia; test: Antimicrobial activity against Providencia 164 carrying AAC(2')-I by tube dilution method; format: functional
[25] = system: Staphylococcus aureus; test: Antimicrobial activity against Staphylococcus aureus Wood by tube dilution method; format: functional
[26] = system: Klebsiella pneumoniae; test: Antimicrobial activity against Klebsiella pneumoniae Georgetown 3694 carrying APH(2'') by tube dilution method; format: functional
[27] = system: Escherichia coli; test: Antimicrobial activity against Escherichia coli LA290R55 carrying ANT(2'') by tube dilution method; format: functional
[28] = system: Escherichia coli; test: Antimicrobial activity against Escherichia coli ATCC 10536 by tube dilution method; format: functional
[29] = system: Pseudomonas aeruginosa; test: Antimicrobial activity against Pseudomonas aeruginosa St. M. 762 by tube dilution method; format: functional
[30] = system: Proteus mirabilis; test: Antimicrobial activity against Proteus mirabilis Harding by tube dilution method; format: functional
[31] = system: Rodentolepis nana; test: Anthelmintic activity against Hymenolepis nana infected in mouse at 195 mg/kg qd for 5 days administered after 2 weeks of infection; format: functional, organism-based; parameters: dose 195 mg/kg
[32] = system: Histomonas meleagridis; test: Antiprotozoal activity against Histomonas meleagridis at 20 ug/ml; format: functional
[33] = system: Heligmosomoides polygyrus; test: Anthelmintic activity against Nematospiroides dubius infected in mouse at 195 mg/kg qd for 5 days administered after 2 weeks of infection; format: functional, organism-based; parameters: dose 195 mg/kg
[34] = system: Syphacia obvelata; test: Anthelmintic activity against Syphacia obvelata infected in mouse at 195 mg/kg qd for 5 days administered after 2 weeks of infection; format: functional, organism-based; parameters: dose 195 mg/kg

| Compound | MIC [1] [µg/mL] | MIC [2] [µg/mL] | MIC [5] [µg/mL] | MIC [6] [µg/mL] | MIC [7] [µg/mL] | MIC [9] [µg/mL] | MIC [10] [µg/mL] | MIC [11] [µg/mL] | MIC [12] [µg/mL] | MIC [13] [µg/mL] | MIC [14] [µg/mL] | LD50 [15] [mg/kg] | MIC [17] [µg/mL] | MIC [18] [µg/mL] | MIC [19] [µg/mL] | MIC [20] [µg/mL] | MIC [21] [µg/mL] | MIC [22] [µg/mL] | MIC [24] [µg/mL] | MIC [25] [µg/mL] | also measured |
| --- | --- | --- | --- | --- | --- | --- | --- | --- | --- | --- | --- | --- | --- | --- | --- | --- | --- | --- | --- | --- | --- |
| CNCC1=CC[C@@H](N)[C@@H](O[C@H]2[C@H](O)[C@@H](O[C@H]3OC[C@](C)(O)[C@H](NC)[C@H]3O)[C@H](N)C[C@@H]2N)O1 | < 0.01 | > 25 | > 25 | 3 (≈ 6.5 µM) | 0.3 (≈ 0.65 µM) | < 0.01 | 0.3 (≈ 0.65 µM) | > 25 | 3 (≈ 6.5 µM) | 3 (≈ 6.5 µM) | 0.075 (≈ 0.162 µM) | 50 | > 25 | 0.03 (≈ 0.065 µM) | 0.75 (≈ 1.62 µM) | 0.3 (≈ 0.65 µM) | 0.75 (≈ 1.62 µM) | 0.3 (≈ 0.65 µM) | > 25 | < 0.01 | Activity [3]: inactive; MIC [4]: 0.03 µg/mL (≈ 0.065 µM); Activity [8]: inactive; MIC [16]: 0.3 µg/mL (≈ 0.65 µM); Activity [23]: inactive; MIC [26]: > 25 µg/mL; MIC [27]: 17.5 µg/mL (≈ 37.9 µM); MIC [28]: 0.3 µg/mL (≈ 0.65 µM); MIC [29]: 0.3 µg/mL (≈ 0.65 µM); MIC [30]: 0.75 µg/mL (≈ 1.62 µM) |
| CN[C@@H]1[C@@H](O)[C@@H](O[C@@H]2[C@@H](O)[C@H](O[C@H]3OC(CO)=CC[C@H]3N)[C@@H](N)C[C@H]2N)OC[C@]1(C)O | 0.3 (≈ 0.669 µM) | > 25 | > 25 | 3 (≈ 6.69 µM) | > 25 | 0.075 (≈ 0.167 µM) | 3 (≈ 6.69 µM) | > 25 | > 25 | > 25 | 3 (≈ 6.69 µM) | 65 | > 25 | 0.3 (≈ 0.669 µM) | 0.3 (≈ 0.669 µM) | 17.5 (≈ 39 µM) | 17.5 (≈ 39 µM) | > 25 | > 25 | 0.3 (≈ 0.669 µM) | Activity [31]: inactive; MIC [3]: < 10 µg/mL; MIC [4]: 0.075 µg/mL (≈ 0.167 µM); Activity [32]: inactive; MIC [8]: 10 µg/mL (≈ 22.3 µM); MIC [16]: > 25 µg/mL; Activity [33]: inactive; Activity [34]: inactive; MIC [26]: > 25 µg/mL; MIC [27]: > 25 µg/mL; MIC [28]: 0.75 µg/mL (≈ 1.67 µM); MIC [29]: 3 µg/mL (≈ 6.69 µM); MIC [30]: 3 µg/mL (≈ 6.69 µM) |
| CN[C@@H]1[C@@H](O)[C@@H](O[C@@H]2[C@@H](O)[C@H](O[C@H]3OC(CNCCO)=CC[C@H]3N)[C@@H](N)C[C@H]2N)OC[C@]1(C)O | 0.03 (≈ 0.061 µM) | 17.5 (≈ 35.6 µM) | > 25 | 0.75 (≈ 1.53 µM) | 17.5 (≈ 35.6 µM) | 0.3 (≈ 0.61 µM) | 0.75 (≈ 1.53 µM) | > 25 | > 25 | 0.75 (≈ 1.53 µM) | 0.075 (≈ 0.153 µM) | 135 | > 25 | 0.03 (≈ 0.061 µM) | 0.75 (≈ 1.53 µM) | 0.3 (≈ 0.61 µM) | 3 (≈ 6.1 µM) | 0.3 (≈ 0.61 µM) | > 25 | 0.03 (≈ 0.061 µM) | Activity [3]: inactive; Activity [8]: inactive; Activity [23]: inactive; MIC [26]: > 25 µg/mL; MIC [27]: 7.5 µg/mL (≈ 15.3 µM); MIC [28]: 0.075 µg/mL (≈ 0.153 µM); MIC [29]: 0.3 µg/mL (≈ 0.61 µM); MIC [30]: 0.3 µg/mL (≈ 0.61 µM) |
| CN[C@@H]1[C@@H](O)[C@@H](O[C@@H]2[C@@H](O)[C@H](O[C@H]3OC(CN)=CC[C@H]3N)[C@@H](N)C[C@H]2N)OC[C@]1(C)O [SISOMICIN] | 0.03 (≈ 0.067 µM) | 7.5 (≈ 16.8 µM) | > 25 | 0.3 (≈ 0.67 µM) | 7.5 (≈ 16.8 µM) | < 0.01 | 0.3 (≈ 0.67 µM) | 17.5 (≈ 39.1 µM) | 17.5 (≈ 39.1 µM) | 3 (≈ 6.7 µM) | 0.3 (≈ 0.67 µM) | 34 | 17.5 (≈ 39.1 µM) | 0.03 (≈ 0.067 µM) | 7.5 (≈ 16.8 µM) | 0.3 (≈ 0.67 µM) | 0.75 (≈ 1.68 µM) | 7.5 (≈ 16.8 µM) | 3 (≈ 6.7 µM) | 0.03 (≈ 0.067 µM) | Activity [3]: Active; MIC [4]: 0.03 µg/mL (≈ 0.067 µM); Activity [8]: Active; MIC [16]: 3 µg/mL (≈ 6.7 µM); Activity [23]: Active; MIC [26]: 7.5 µg/mL (≈ 16.8 µM); MIC [27]: 7.5 µg/mL (≈ 16.8 µM); MIC [28]: 0.75 µg/mL (≈ 1.68 µM); MIC [29]: 0.3 µg/mL (≈ 0.67 µM); MIC [30]: 0.3 µg/mL (≈ 0.67 µM) |
| CN[C@@H]1[C@@H](O)[C@@H](O[C@@H]2[C@@H](O)[C@H](O[C@H]3OC(CNCCc4ccccc4)=CC[C@H]3N)[C@@H](N)C[C@H]2N)OC[C@]1(C)O | 3 (≈ 5.44 µM) | > 25 | > 25 | 17.5 (≈ 31.7 µM) | > 25 | 0.03 (≈ 0.0544 µM) | > 25 | > 25 | > 25 | > 25 | > 25 | 30 | > 25 | 7.5 (≈ 13.6 µM) | 0.75 (≈ 1.36 µM) | > 25 | 7.5 (≈ 13.6 µM) | > 25 | > 25 | 3 (≈ 5.44 µM) | Activity [3]: inactive; MIC [4]: 3 µg/mL (≈ 5.44 µM); Activity [8]: inactive; MIC [16]: 17.5 µg/mL (≈ 31.7 µM); Activity [23]: inactive; MIC [26]: > 25 µg/mL; MIC [27]: > 25 µg/mL; MIC [28]: 0.75 µg/mL (≈ 1.36 µM); MIC [29]: > 25 µg/mL; MIC [30]: > 25 µg/mL |
| CN[C@@H]1[C@@H](O)[C@@H](O[C@@H]2[C@@H](O)[C@H](O[C@H]3OC(CNC(C)(C)C)=CC[C@H]3N)[C@@H](N)C[C@H]2N)OC[C@]1(C)O | 0.03 (≈ 0.0596 µM) | > 25 | > 25 | 3 (≈ 5.96 µM) | 3 (≈ 5.96 µM) | < 0.01 | 7.5 (≈ 14.9 µM) | > 25 | 17.5 (≈ 34.7 µM) | 3 (≈ 5.96 µM) | 7.5 (≈ 14.9 µM) | 90 | > 25 | 0.03 (≈ 0.0596 µM) | 3 (≈ 5.96 µM) | 17.5 (≈ 34.7 µM) | 7.5 (≈ 14.9 µM) | 7.5 (≈ 14.9 µM) | 17.5 (≈ 34.7 µM) | 0.03 (≈ 0.0596 µM) | Activity [3]: inactive; MIC [4]: 0.75 µg/mL (≈ 1.49 µM); Activity [8]: inactive; MIC [16]: 7.5 µg/mL (≈ 14.9 µM); Activity [23]: inactive; MIC [26]: > 25 µg/mL; MIC [27]: 17.5 µg/mL (≈ 34.7 µM); MIC [28]: 0.75 µg/mL (≈ 1.49 µM); MIC [29]: 7.5 µg/mL (≈ 14.9 µM); MIC [30]: 3 µg/mL (≈ 5.96 µM) |
